Results from US7087643B2, “Carbamate compounds for use in preventing or treating neuropathic pain and cluster and migraine headache-associated pain” (Ortho-McNeil Pharmaceutical Inc., priority 2001, dated 2006).

Tests used:
[1] = system: L5 spinal nerve ligated rats (mechanical allodynia, Chung model of neuropathic pain); assay: Antiallodynic activity, Chung model, manually applied von Frey probes; assay type: in vivo, rat (Sprague-Dawley); conditions: for % Maximum Possible Effect: time of peak effect
Procedure: (§1) The procedure used to test the antiallodynic activity of a compound of Formula (I) was the procedure for the measurement of allodynia found in the Chung Model (Kim S. H. and Chung J. M., An Experimental Model for Peripheral Neuropathy Produced by Segmental Spinal Nerve Ligation in the Rat, Pain, 1992, 50, 355–363).
Pathogen-free, male albino Sprague-Dawley rats, 200 g, were purchased from Harlan Industries (Indianapolis, Ind.) and maintained on a 12-h light/dark cycle (lights on at 06:00 h) in a climate-controlled room with food and water available ad libitum up to the time of the testing and food withdrawn 18 hr prior to testing.
The rats were anesthetized with isoflurane inhalant anesthesia. The left lumbar spinal nerve at the level of L5 was tightly ligated (4-0 silk suture) distal to the dorsal root ganglion and prior to entrance into the sciatic nerve, as described by Kim and Chung. The incisions were closed and the rats were allowed to recover under conditions described above. This procedure results in mechanical allodynia in the left hind paw. The sham operation, when performed, consisted of a similar surgical procedure lacking only the final ligation of the spinal nerve. Mechanical (tactile) allodynia was assessed by recording the pressure at which the affected paw (ipsilateral to the site of nerve injury) was withdrawn from graded stimuli (von Frey filaments ranging from 4.0 to 148.1 mN) applied by hand perpendicularly to the plantar surface of the paw (between the footpads) through wire-mesh observation cages. A paw withdrawal threshold (PWT) was determined by sequentially increasing and decreasing the stimulus strength and analyzing withdrawal data using a Dixon non-parametric test, as described by Chaplan et al (Chaplan S. R., Bach F. W., Pogrel J. W., Chung J. M. and Yaksh T. L., Quantitative Assessment of Tactile Allodynia in the Rat Paw, J Neurosci Meth, 1994, 53, 55–63). Normal rats, sham operated rats, and the contralateral paw of L5 ligated rats withstand at least 148.1 mN (equivalent to 15 g) of pressure without responding. […]

[2] = system: L5 and L6 spinal nerve ligated rats (mechanical allodynia); assay: Antiallodynic activity, Chung model, electronic Von Frey probes; assay type: in vivo, rat (Rj: Wistar (Han)); conditions: for % Change (force required to induce paw-withdrawal vs controls): ligatured paw
Source text: as §1
Pathogen-free, male Rj: Wistar (Han) rats (300–380 g) were purchased from Elevage Janvier, 53940 Le Genest-Saint-Isle, France. The animals were maintained on a 12-h light/dark cycle (lights on from 7:00–19:00) in a controlled ambient temperature of 21±1° C., and relative humidity maintained at 40–70%. The animals had free access to food (UAR 113) and tap water until tested.
Rats were anesthetized (sodium pentobarbital 40 mg/kg i.p.). A ligature was tied tightly around the left L5 and L6 spinal nerves. The rats received an i.m. injection of 50 000 IU Penicillin (Diamant®) and were allowed to recover. This procedure results in mechanical allodynia in the left hind paw. Two weeks after the surgery, when the allodynic state was fully developed, rats were submitted consecutively to tactile stimulation of both the non-lesioned and the lesioned hindpaws.
The animals were placed on an elevated grid floor in Plexiglass boxes (19×11.5×13 cm). The tip of an electronic Von Frey probe (Bioseb, Model 1610) was then applied with increasing pressure to the lesioned and non-lesioned hindpaws and the force required to induce paw-withdrawal was automatically recorded. Prior to receiving drug treatment all animals were submitted to tactile stimulation and assigned to treatment groups matched on the basis of their pain response. This procedure was carried out 3 times for each paw and the mean paw force was calculated to provide basic scores per animal. Data were expressed as percent change (means±SEM) of effectiveness from the controls. Statistical analysis was done using non-paired and paired Student's t tests.
As summarized in Table 2 below, the enantiomer of Formula (Ic) was evaluated at the doses 10, 30 and 100 mg/kg (n=8), administered p.o. in a volume of 5 mL/kg. Morphine ([…]) was used as reference substance. Control animals received a p.o. administration of vehicle. The test was performed blind 30, 60 and 90 minutes after drug administration.

Compound	% Maximum Possible Effect ([1]; 30 mg/Kg po, 30 minutes after oral dosing, n=5) [%]	% Maximum Possible Effect ([1]; 100 mg/Kg po, 30 to 60 minutes after oral dosing, n=10) [%]	Duration of antiallodynic response ([1]; 30 and 100 mg/Kg po, responses measured at 0.5, 1, 2 and 4 hours post dosing)	% Change (force required to induce paw-withdrawal vs controls) ([2]; 10 mg/kg p.o., 60 minute post-dosing, n=8) [%]	% Change (force required to induce paw-withdrawal vs controls) ([2]; 30 mg/kg p.o., 60 minute post-dosing, n=8) [%]	% Change (force required to induce paw-withdrawal vs controls) ([2]; 100 mg/kg p.o., 60 minute post-dosing, n=8) [%]	Effect on non-ligatured paw withdrawal force ([2]; 10, 30 and 100 mg/Kg p.o., 60 minute post-dosing)	Anti-allodynic effect at 90 minutes post-dosing ([2]; 10, 30 and 100 mg/Kg p.o., 90 minutes post-dosing)	% Change (force required to induce paw-withdrawal vs controls) ([2]; 128 mg/Kg morphine positive control) [%]
NC(=O)OC[C@H](OC(N)=O)c1ccccc1Cl [Formula (Ic)]	0	25.7	responses returned to baseline by one hour	69	115	88	without affecting the non-ligatured paw	no longer present by 90 minutes post-dosing	
CN1CC[C@]23c4c5ccc(O)c4O[C@H]2[C@@H](O)C=C[C@H]3[C@H]1C5 [morphine, reference compound]									38
